Measurements: patent publication US20100216827A1 (Metabolex, Inc., priority 2008, published 2010)
Like-named read-outs stand apart in the source and are kept apart here.

Target: T1, human GPR120 (Homo sapiens, UniProt Q5NUL3)
T1 construct: host or cells: HEK293 cells coexpressing Gqi5
T1 sequence (Q5NUL3 1-361): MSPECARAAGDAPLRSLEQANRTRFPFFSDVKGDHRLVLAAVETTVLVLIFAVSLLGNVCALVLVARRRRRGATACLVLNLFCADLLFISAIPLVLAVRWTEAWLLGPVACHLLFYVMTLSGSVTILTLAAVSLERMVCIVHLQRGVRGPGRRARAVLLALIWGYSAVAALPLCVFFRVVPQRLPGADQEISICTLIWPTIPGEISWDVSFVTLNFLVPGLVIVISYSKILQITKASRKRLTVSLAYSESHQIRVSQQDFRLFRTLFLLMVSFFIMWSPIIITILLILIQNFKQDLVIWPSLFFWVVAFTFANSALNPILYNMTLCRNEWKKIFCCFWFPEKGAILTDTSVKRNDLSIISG
Test: Intracellular Ca2+ (FLIPR Calcium 4, Flexstation) assay in human GPR120 stable HEK293 cell line coexpressing Gqi5
Format: cell-based
Conditions: for % Activity at 5 μM: 5 μM compound compared to the maximal activity of GW9508 at 6.7 μM (100%); for EC50: human GPR120 stably expressing cells, 8 concentrations 0.00001 to 20 μM
Procedure, shortened: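 Calcium 4 dye-loaded HEK293 cells expressing N-terminally Flag-tagged human GPR120 with Gqi5 (HBSS/20 mM HEPES, pH 7.4; 50 min, 37 °C). Fluorescence (485/525 nm) read for 90 s after addition of compound at 8 concentrations, 0.00001–20 μM; EC50 from Max−Min change. % activity at 5 μM versus maximal GW9508 response (6.7 μM).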

[1] = read-out: EC50 between >1 μM and ≦10 μM

Row | Compound | % Activity at 5 μM [%] | EC50 (read-out: EC50 ≦ 1 μM) [nM] | EC50 [1] [nM]
1 | CC(Cc1cc(F)c(OCc2ccnn2-c2ccc(Cl)cc2)c(F)c1)C(=O)O (stereo not drawn) [Example 93, 3-(4-((1-(4-chlorophenyl)-1H-pyrazol-5-yl)methoxy)-3,5-difluorophenyl)-2-methylpropanoic acid] | 108 | ≤ 1000 | 
2 | Cc1cc(COc2c(F)cc(CC(C)C(=O)O)cc2F)n(-c2ccc(Cl)c(C)c2)n1 (stereo not drawn) [Example 94, 3-(4-((1-(4-chloro-3-methylphenyl)-3-methyl-1H-pyrazol-5-yl)methoxy)-3,5-difluorophenyl)-2-methylpropanoic acid] | 108 | ≤ 1000 | 
3 | CCc1ccc(-n2nc(C(F)(F)F)cc2COc2c(F)cc(CC(C)C(=O)O)cc2F)cc1 (stereo not drawn) [Example 96, 3-(4-((1-(4-ethylphenyl)-3-(trifluoromethyl)-1H-pyrazol-5-yl)methoxy)-3,5-difluorophenyl)-2-methylpropanoic acid] | 97 | ≤ 1000 | 
4 | Cc1cc(COc2c(F)cc(CC(C)C(=O)O)cc2F)n(-c2ccc(Br)cc2)n1 (stereo not drawn) [Example 97, 3-(4-((1-(4-bromophenyl)-3-methyl-1H-pyrazol-5-yl)methoxy)-3,5-difluorophenyl)-2-methylpropanoic acid] | 109 | ≤ 1000 | 
5 | CCc1ccc(-n2nc(C)cc2COc2c(F)cc(C[C@@H](C)C(=O)O)cc2F)cc1 [Example 98, (R)-3-(4-((1-(4-ethylphenyl)-3-methyl-1H-pyrazol-5-yl)methoxy)-3,5-difluorophenyl)-2-methylpropanoic acid] | 104 | ≤ 1000 | 
6 | CCc1ccc(-n2nc(C)cc2COc2c(F)cc(C[C@H](C)C(=O)O)cc2F)cc1 [Example 99, (S)-3-(4-((1-(4-ethylphenyl)-3-methyl-1H-pyrazol-5-yl)methoxy)-3,5-difluorophenyl)-2-methylpropanoic acid] | 73 | ≤ 1000 | 
7 | COc1cc(OCc2cc(C)nn2-c2ccc(Cl)cc2)ccc1CC(C)C(=O)O (stereo not drawn) [Example 103, 3-(4-((1-(4-Chlorophenyl)-3-methyl-1H-pyrazol-5-yl)methoxy)-2-methoxyphenyl)-2-methylpropanoic acid] | 78 |  | 1000 to 10000

Second part, the compound after the results:

Row | % Activity at 5 μM [%] | EC50 (read-out: EC50 ≦ 1 μM) [nM] | EC50 [1] [nM] | Compound
8 | 58 | ≤ 1000 |  | Cc1cc(C)cc(-n2nc(C)cc2COc2c(F)cc(CC(C)C(=O)O)cc2F)c1 (stereo not drawn) [Example 92, 3-(4-((1-(3,5-dimethylphenyl)-3-methyl-1H-pyrazol-5-yl)methoxy)-3,5-difluorophenyl)-2-methylpropanoic acid]
9 | 100 | ≤ 1000 |  | CCc1ccc(-n2nc(C)cc2COc2ccc(CC(C)C(=O)O)cc2C)cc1 (stereo not drawn) [Example 95, 3-(4-((1-(4-ethylphenyl)-3-methyl-1H-pyrazol-5-yl)methoxy)-3-methylphenyl)-2-methylpropanoic acid]
10 | 109 | ≤ 1000 |  | CCc1ccc(-n2nccc2COc2c(F)cc(CC(C)C(=O)O)cc2F)cc1 (stereo not drawn) [Example 100, 3-(4-((1-(4-ethylphenyl)-1H-pyrazol-5-yl)methoxy)-3,5-difluorophenyl)-2-methylpropanoic acid]
11 | 113 | ≤ 1000 |  | CCc1cc(COc2c(F)cc(CC(C)C(=O)O)cc2F)n(-c2ccc(Cl)cc2)n1 (stereo not drawn) [Example 101, 3-(4-((1-(4-chlorophenyl)-3-ethyl-1H-pyrazol-5-yl)methoxy)-3,5-difluorophenyl)-2-methylpropanoic acid]
12 | 61 |  | 1000 to 10000 | CCOC(Cc1cc(F)c(OCc2cc(C)nn2-c2ccc(Cl)cc2)c(F)c1)C(=O)O (stereo not drawn) [Example 102, 3-(4-((1-(4-chlorophenyl)-3-methyl-1H-pyrazol-5-yl)methoxy)-3,5-difluorophenyl)-2-ethoxypropanoic acid]
